Laboratory results as given in patent US20160362408A1 (Bayer Pharma Aktiengesellschaft, priority 2013, published 2016).

Target: T1, recombinant guanylate cyclase reporter cell line (Rattus norvegicus, UniProt P19686+P20595)
T1 construct: expressed in transfected cells
T1 sequence (P19686 1-690): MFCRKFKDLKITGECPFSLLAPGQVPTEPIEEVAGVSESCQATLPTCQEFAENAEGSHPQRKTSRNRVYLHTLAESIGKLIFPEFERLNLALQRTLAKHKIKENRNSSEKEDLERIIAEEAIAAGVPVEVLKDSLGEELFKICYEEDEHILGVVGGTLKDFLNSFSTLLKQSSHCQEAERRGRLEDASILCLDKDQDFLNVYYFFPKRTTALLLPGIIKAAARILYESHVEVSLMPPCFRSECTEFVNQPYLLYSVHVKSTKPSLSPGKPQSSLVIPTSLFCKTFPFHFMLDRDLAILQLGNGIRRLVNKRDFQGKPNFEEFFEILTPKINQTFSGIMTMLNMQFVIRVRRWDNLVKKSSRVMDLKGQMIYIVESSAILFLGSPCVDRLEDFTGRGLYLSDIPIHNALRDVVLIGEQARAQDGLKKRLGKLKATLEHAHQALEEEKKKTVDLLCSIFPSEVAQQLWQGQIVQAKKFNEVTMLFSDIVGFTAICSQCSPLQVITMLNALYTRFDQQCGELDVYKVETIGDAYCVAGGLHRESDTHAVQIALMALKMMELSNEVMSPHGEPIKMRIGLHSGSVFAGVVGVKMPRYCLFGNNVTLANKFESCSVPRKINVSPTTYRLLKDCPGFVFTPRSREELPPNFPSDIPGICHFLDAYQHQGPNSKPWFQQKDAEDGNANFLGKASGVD
T1 sequence (P20595 1-619): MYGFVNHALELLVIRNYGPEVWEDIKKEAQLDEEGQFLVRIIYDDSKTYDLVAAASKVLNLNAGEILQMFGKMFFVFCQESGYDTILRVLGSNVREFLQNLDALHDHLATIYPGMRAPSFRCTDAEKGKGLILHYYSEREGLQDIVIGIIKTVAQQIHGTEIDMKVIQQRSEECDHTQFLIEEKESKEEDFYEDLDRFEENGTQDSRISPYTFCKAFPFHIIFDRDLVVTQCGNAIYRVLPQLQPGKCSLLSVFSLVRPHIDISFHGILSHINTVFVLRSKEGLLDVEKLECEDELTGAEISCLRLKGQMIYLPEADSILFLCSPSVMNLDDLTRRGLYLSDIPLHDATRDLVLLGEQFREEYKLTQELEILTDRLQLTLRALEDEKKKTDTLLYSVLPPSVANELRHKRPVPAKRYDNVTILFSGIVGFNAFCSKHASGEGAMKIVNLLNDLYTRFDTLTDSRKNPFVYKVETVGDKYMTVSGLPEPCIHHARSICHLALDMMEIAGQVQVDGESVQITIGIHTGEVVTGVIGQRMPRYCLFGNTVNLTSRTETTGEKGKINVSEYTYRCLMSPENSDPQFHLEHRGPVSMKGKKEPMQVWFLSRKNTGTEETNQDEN
Experiment: Effect on a recombinant guanylate cyclase reporter cell line
Type: cell-based
Conditions: MEC = minimum effective concentration; in some cases mean values for individual determinations
Protocol: B-2. Effect on a Recombinant Guanylate Cyclase Reporter Cell Line
The cellular action of the compounds of the invention is determined using a recombinant guanylate cyclase reporter cell line, as described in F. Wunder et al., Anal. Biochem. 339, 104-112 (2005).
Representative MEC values (MEC=minimum effective concentration) for the compounds of the invention are shown in the table below (in some cases as mean values for individual determinations): […]

| SMILES | MEC |
| --- | --- |
| Cc1cc(NC(=O)c2c(C)nc3c(OCc4c(F)cccc4F)cccn23)c2ccccc2n1 [Example 69] | 0.55 µM |
| Cc1nc2c(OCc3c(F)cccc3F)cccn2c1C(=O)Nc1ccnc2ccc(Cl)cc12 [Example 71] | 0.1 µM |
| Cc1nc2c(OCc3c(F)cccc3F)cccn2c1C(=O)Nc1ccc(C)c2ncccc12 [Example 72] | 0.3 µM |
| Cc1nc2c(OCc3c(F)cccc3F)cccn2c1C(=O)Nc1cccc2ccc(O)cc12 [Example 74] | 1.0 µM |
| Cc1nc2c(OCc3c(F)cccc3F)cccn2c1C(=O)Nc1c(C(F)(F)F)n[nH]c1C [Example 76, 8-[(2,6-Difluorobenzyl)oxy]-2-methyl-N-[5-methyl-3-(trifluoromethyl)-1H-pyrazol-4-yl]imidazo[1,2-a]pyridine-3-carboxamide] | 0.1 µM |
| Cc1nc2c(OCc3c(F)cccc3F)cccn2c1C(=O)Nc1n[nH]c2ccccc12 [Example 80, 8-[(2,6-Difluorobenzyl)oxy]-N-(1H-indazol-3-yl)-2-methylimidazo[1,2-a]pyridine-3-carboxamide] | 0.3 µM |
| Cc1nc2c(OCc3c(F)cccc3F)cccn2c1C(=O)Nc1cn(C)nc1CO [Example 81] | 1.0 µM |
| Cc1nc2c(OCc3c(F)cccc3F)cc(Cl)cn2c1C(=O)Nc1cnn2ccccc12 [Example 82] | 0.3 µM |
| Cc1nc2c(OCc3c(F)cccc3F)cccn2c1C(=O)Nc1nnc(CCOC(C)C)s1 [Example 83] | 3.0 µM |
| Cc1nc2c(OCc3c(F)cccc3F)cccn2c1C(=O)Nc1nnc(C2CC2)s1 [Example 84] | 3.0 µM |
| Cc1cc(OCc2c(F)cccc2F)c2nc(C)c(C(=O)Nc3cnn(CC(F)(F)F)c3)n2c1 [Example 85] | 0.1 µM |
| Cc1cc(OCc2c(F)cccc2F)c2nc(C)c(C(=O)Nc3cnn(CCO)c3)n2c1 [Example 86] | 0.3 µM |
| Cc1cc(OCc2c(F)cccc2F)c2nc(C)c(C(=O)Nc3c(C)nn(CCO)c3C)n2c1 [Example 87] | 0.3 µM |
| Cc1cc(OCc2c(F)cccc2F)c2nc(C)c(C(=O)Nc3c(C(F)(F)F)n[nH]c3C)n2c1 [Example 94] | 0.1 µM |
| Cc1nc2c(OCc3c(F)cccc3F)cccn2c1C(=O)Nc1ccc(NCCO)cc1 [Example 98] | 1.0 µM |
| Cc1nc2c(OCc3c(F)cccc3F)cccn2c1C(=O)Nc1cccc(N2CCN(C)CC2)c1 [Example 99] | 3.0 µM |
| Cc1nc2c(OCc3c(F)cccc3F)cccn2c1C(=O)Nc1nn(C)c2ccc(C(F)(F)F)cc12 [Example 103, 8-[(2,6-Difluorobenzyl)oxy]-2-methyl-N-[1-methyl-5-(trifluoromethyl)-1H-indazol-3-yl]imidazo[1,2-a]pyridine-3-carboxamide] | 1.0 µM |
| Cc1nc2c(OCc3c(F)cccc3F)cc(Cl)cn2c1C(=O)Nc1ccccc1CN [Example 104, N-[2-(Aminomethyl)phenyl]-6-chloro-8-[(2,6-difluorobenzyl)oxy]-2-methylimidazo[1,2-a]pyridine-3-carboxamide] | 3.0 µM |
| Cc1nc2c(OCc3c(F)cccc3F)cccn2c1C(=O)Nc1ccc(N2CCNCC2)c(F)c1 [Example 106, 8-[(2,6-difluorobenzyl)oxy]-N-[3-fluoro-4-(piperazin-1-yl)phenyl]-2-methylimidazo[1,2-a]pyridine-3-carboxamide] | 1.0 µM |
| Cc1cc(N2CCNCC2)ccc1NC(=O)c1c(C)nc2c(OCc3c(F)cccc3F)cc(Cl)cn12 [Example 108, 6-chloro-8-[(2,6-difluorobenzyl)oxy]-2-methyl-N-[2-methyl-4-(piperazin-1-yl)phenyl]imidazo[1,2-a]pyridine-3-carboxamide] | 1.0 µM |
| Cc1nc2c(OCc3c(F)cccc3F)cc(Cl)cn2c1C(=O)Nc1ccc(N2CCNCC2)c(F)c1 [Example 109, 6-chloro-8-[(2,6-difluorobenzyl)oxy]-N-[3-fluoro-4-(piperazin-1-yl)phenyl]-2-methylimidazo[1,2-a]pyridine-3-carboxamide] | 3.0 µM |
| Cc1cc(OCc2c(F)cccc2F)c2nc(C)c(C(=O)Nc3ccccc3CN)n2c1 [Example 112, N-[2-(Aminomethyl)phenyl]-8-[(2,6-difluorobenzyl)oxy]-2,6-dimethylimidazo[1,2-a]pyridine-3-carboxamide] | 0.3 µM |

The remaining lines, values ahead:

| MEC | SMILES |
| --- | --- |
| 0.3 µM | Cc1cc2c(NC(=O)c3c(C)nc4c(OCc5c(F)cccc5F)cccn34)cccc2nn1 [Example 70] |
| 0.1 µM | Cc1nc2c(OCc3c(F)cccc3F)cccn2c1C(=O)Nc1ccnc2cc(Cl)ccc12 [Example 77, N-(7-Chloroquinolin-4-yl)-8-[(2,6-difluorobenzyl)oxy]-2-methylimidazo[1,2-a]pyridine-3-carboxamide] |
| 1.0 µM | Cc1nc2c(OCc3c(F)cccc3F)cccn2c1C(=O)Nc1ccnc2c(F)cccc12 [Example 78] |
| 0.1 µM | Cc1nc2c(OCc3c(F)cccc3F)cccn2c1C(=O)Nc1ccnc2ccc(C(F)(F)F)cc12 [Example 79] |
| 0.65 µM | Cc1nc2c(OCc3c(F)cccc3F)cccn2c1C(=O)Nc1c(C(C)(C)O)n[nH]c1C [Example 88] |
| 0.1 µM | Cc1cc(OCc2c(F)cccc2F)c2nc(C)c(C(=O)Nc3cnn(COCC(F)(F)F)c3)n2c1 [Example 89] |
| 0.3 µM | Cc1nc2c(OCc3c(F)cccc3F)cccn2c1C(=O)Nc1cnn(COCC(F)(F)F)c1 [Example 90] |
| 0.01 µM | Cc1cc(OCc2c(F)cccc2F)c2nc(C)c(C(=O)Nc3ccnc4ccc(F)cc34)n2c1 [Example 91, 8-[(2,6-Difluorobenzyl)oxy]-N-(6-fluoroquinolin-4-yl)-2,6-dimethylimidazo[1,2-a]pyridine-3-carboxamide] |
| 0.1 µM | Cc1nc2c(OCc3c(F)cccc3F)cc(Cl)cn2c1C(=O)Nc1ccnc2ccc(F)cc12 [Example 92] |
| 1.0 µM | Cc1ccncc1NC(=O)c1c(C)nc2c(OCc3c(F)cccc3F)cccn12 [Example 93] |
| 0.3 µM | Cc1nc2c(OCc3c(F)cccc3F)cccn2c1C(=O)Nc1cccnc1 [Example 95] |
| 3.0 µM | Cc1nc2c(OCc3c(F)cccc3F)cccn2c1C(=O)Nc1ccc(N2CCN(C)CC2)cc1 [Example 96] |
| 1.0 µM | Cc1nc2c(OCc3c(F)cccc3F)cccn2c1C(=O)Nc1ccc(N2CCN(C)CC2)c(C(F)(F)F)c1 [Example 97] |
| 1.65 µM | Cc1nc2c(OCc3c(F)cccc3F)cccn2c1C(=O)Nc1ccnc2cc(C(F)(F)F)ccc12 [Example 100] |
| 1.0 µM | Cc1cc(NC(=O)c2c(C)nc3c(OCc4c(F)cccc4F)cccn23)cc(C)n1 [Example 101] |
| 0.3 µM | CCOc1cc(NC(=O)c2c(C)nc3c(OCc4c(F)cccc4F)cccn23)cc(C)n1 [Example 102] |
| 1.0 µM | Cc1nc2c(OCc3c(F)cccc3F)cccn2c1C(=O)Nc1ccc(N2CCNCC2)c(C(F)(F)F)c1 [Example 107, 8-[(2,6-difluorobenzyl)oxy]-2-methyl-N-[4-(piperazin-1-yl)-3-(trifluoromethyl)phenyl]imidazo[1,2-a]pyridine-3-carboxamide] |
| 1.0 µM | Cc1nc2c(OCc3c(F)cccc3F)cccn2c1C(=O)Nc1ccccc1CN [Example 111, N-[2-(Aminomethyl)phenyl]-8-[(2,6-difluorobenzyl)oxy]-2-methylimidazo[1,2-a]pyridine-3-carboxamide] |
